# Experimental data published in patent US20100190187A1, “Screening Assays for Antagonists and Analyses of Cardiac Hypertrophy” (The Regents of the University of Michigan Office of …, priority 2006, published 2010).
# Test system: HL-1 cells
# Experiment: Immunofluorescence staining of hypertrophy related proteins in HL-1 cells
# Type: cell-based, murine
# Conditions: FIG. 12
# From the text: (§1) Immunofluorescent staining of HL-1 cells can be carried out in a method similar to that previously described (Tevosian et al., 1999), except that 0.5% CHAPS (Fisher) can be used instead of Triton X-100. Briefly, HL-1 cells grown on 2-well slides (Lab-Tek) are initially preserved with Sprayfix cytology fixative. To prepare for staining, the slides are washed in EtOH and water, and then briefly washed with PBS. Cells were fixed with cold acetone, rinsed with PBS, and permeabilized by three ten minute washes with 0.5% CHAPS/PBS. Next, the cells are blocked overnight with 5% milk/10% goat serum/PBS. The permeabilization step is then repeated prior to incubation with the primary antibody in 10% goat serum/0.5% CHAPS/PBS with the antibodies and dilutions listed below. After a one-hour incubation with the primary antibodies, the slides are washed three times in the 10% goat serum/0.5% CHAPS/PBS, then three times in 0.5% CHAPS/PBS. Secondary antibodies, as described below, can be incubated for one-hour with 1% BSA/0.5% CHAPS/PBS. After washing with 0.5% CHAPS/PBS the cells are stained for five minutes with 4,6-diamidine-2-phenylidole-dihydrochloride (DAPI Nucleic Acid Stain; Invitrogen) and cover slips are mounted with Prolong Gold anti-fade reagent (Invitrogen). The following antibody combinations can be used: rabbit anti-mouse VDR (sc-1008; Santa Cruz Biotech; 1:100 dilution), rabbit anti-mouse ANP (AB 5490; Chemicon; 1:50 dilution), and rabbit anti-mouse c-myc (sc-764; Santa Cruz Biotech; 1:100 dilution), all followed by FITC conjugated goat anti-rabbit (AP 307F; Chemicon; 1:400). Mouse monoclonal anti-myotrophin (V 11220, BD Transduction Laboratory; 1:50) followed by FITC conjugated goat anti-mouse (F-0257; Sigma; 1:128), and goat anti-mouse calbindin-9 (sc-18038. Santa Cruz Bio; 1:100) followed by FITC conjugated rabbit anti-goat (AP 106F; Chemicon; 1:100). Slides can be analyzed on an Olympus BX 51 immunofluorescence microscope and photomicrographs can be recorded as digital images.
# as §1, with “incubation” for “incubation with the primary antibodies,”, “The following antibody combinations can be used: rabbit anti-mouse VDR (sc-1008; Santa Cruz Biotech; 1:100 dilution), rabbit anti-mouse ANP (AB 5490; Chemicon; 1:50 dilution), and rabbit anti-mouse c-myc (sc-764; Santa Cruz Biotech; 1:100 dilution), all followed by FITC conjugated goat anti-rabbit (AP 307F; Chemicon; 1:400). Mouse monoclonal anti-myotrophin (V 11220, BD Transduction Laboratory; 1:50) followed by FITC conjugated goat anti-mouse (F-0257; Sigma; 1:128), and goat anti-mouse calbindin-9 (sc-18038. Santa Cruz Bio; 1:100) followed by FITC conjugated rabbit anti-goat (AP 106F; Chemicon; 1:100).” left out
structure (smiles),measurement,value
C=C1CC[C@H](O)C/C1=C/C=C1\CCC[C@]2(C)[C@@H]([C@H](C)CCCC(C)C)CC[C@@H]12 [Vitamin D3],expression of ANP,inhibited or reduced the expression
same,expression of VDR,increased the expression
same,expression of c-myc,inhibited or reduced the expression
same,expression of calbindin 9,inhibited or reduced the expression
same,expression of myotrophin,increased the expression
